Data: patent US20240092784A1, “CONDENSED HETEROCYCLIC COMPOUND” (NISSAN CHEMICAL CORPORATION, priority 2020, published 2024)

Target: human SPR (Homo sapiens (Human), UniProt P35270)
Assay: Evaluation Example 2: Measurement of human SPR inhibitory activity (seven concentrations, sepiapterin absorbance at 420 nm)
Assay type: biochemical
Details: Evaluation Example 2, seven concentrations 0.14 nM to 100 nM, 240 minutes at room temperature, read-out: IC50
Outline: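 His-tagged full-length human SPR (1-261) was expressed in E. coli and the tag removed. Enzyme at 150 ng/mL in 100 mM Tris-HCl pH 7.5/0.01% BSA was mixed with compound (0.14–100 nM, seven points), 120 μM sepiapterin and 160 μM NADPH, both as added-solution concentrations. After 240 min at room temperature, remaining sepiapterin was read at 420 nm to give percent inhibition.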

human SPR, sequence (P35270 whole entry): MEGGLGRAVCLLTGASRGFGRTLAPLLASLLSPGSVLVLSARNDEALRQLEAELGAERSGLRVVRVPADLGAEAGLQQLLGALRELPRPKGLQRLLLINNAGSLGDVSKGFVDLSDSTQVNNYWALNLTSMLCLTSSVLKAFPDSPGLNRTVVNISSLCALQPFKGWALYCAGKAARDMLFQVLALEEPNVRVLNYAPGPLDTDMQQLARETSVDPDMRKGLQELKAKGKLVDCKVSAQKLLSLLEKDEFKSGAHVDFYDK

`CC(=O)N1CCC(/C=C/c2cnn3c(O)c(C(=O)NC4CC4)c(=O)n(CC(C)C)c23)CC1` [Synthesis Example 244, (E)-3-(2-(1-Acetylpiperidin-4-yl)vinyl)-N-cyclopropyl-7-hydroxy-4-isobutyl-5-oxo-4,5-dihydropyrazolo[1,5-a]pyrimidine-6-carboxamide] and `CC(C)Cn1c(=O)c(C(=O)NC2CC2)c(O)n2ncc(/C=C/C3CC3)c12` [Synthesis Example 246, (E)-N-Cyclopropyl-3-(2-cyclopropylvinyl)-7-hydroxy-4-isobutyl-5-oxo-4,5-dihydropyrazolo[1,5-a]pyrimidine-6-carboxamide] are within 1.5-fold of each other in IC50: 0.99 nM for the first, 1.19 nM for the second.

`CC(=O)N1CCC(C)(/C=C/c2cnn3c(O)c(C(=O)NC4CC4)c(=O)n(CC(C)C)c23)CC1` [Synthesis Example 245, (E)-3-(2-(1-Acetyl-4-methylpiperidin-4-yl)vinyl)-N-cyclopropyl-7-hydroxy-4-isobutyl-5-oxo-4,5-dihydropyrazolo[1,5-a]pyrimidine-6-carboxamide] and `C/C(=C\c1cnn2c(O)c(C(=O)NC3CC3)c(=O)n(CC(C)C)c12)C(=O)N1CCC(F)(F)CC1` [Synthesis Example 253, (E)-N-Cyclopropyl-3-(3-(4,4-difluoropiperidin-1-yl)-2-methyl-3-oxoprop-1-en-1-yl)-7-hydroxy-4-isobutyl-5-oxo-4,5-dihydropyrazolo[1,5-a]pyrimidine-6-carboxamide] are within 1.5-fold of each other in IC50: 1.08 nM for the first, 0.85 nM for the second.

Compared with `CC(C)Cn1c(=O)c(C(=O)NC2CC2)c(O)n2ncc(/C=C/c3cccnc3)c12` [Synthesis Example 247, (E)-N-Cyclopropyl-7-hydroxy-4-isobutyl-5-oxo-3-(2-(pyridin-3-yl)vinyl)-4,5-dihydropyrazolo[1,5-a]pyrimidine-6-carboxamide], `CC(C)Cn1c(=O)c(C(=O)NC2CC2)c(O)n2ncc(/C=C/c3ccc(C(F)(F)F)nc3)c12` [Synthesis Example 248, (E)-N-Cyclopropyl-7-hydroxy-4-isobutyl-5-oxo-3-(2-(6-(trifluoromethyl)pyridine-3-yl)vinyl)-4,5-dihydropyrazolo[1,5-a]pyrimidine-6-carboxamide] is 2-fold higher in IC50: 0.94 nM for the first, 1.89 nM for the second. The first is the more potent here.

Going from `CC(C)Cn1c(=O)c(C(=O)NC2CC2)c(O)n2ncc(/C=C/C3CCN(CC(F)(F)F)CC3)c12` [Synthesis Example 249, (E)-N-Cyclopropyl-7-hydroxy-4-isobutyl-5-oxo-3-(2-(1-(2,2,2-trifluoroethyl)piperidin-4-yl)vinyl)-4,5-dihydropyrazolo[1,5-a]pyrimidine-6-carboxamide] to `CC(C)Cn1c(=O)c(C(=O)NC2CC2)c(O)n2ncc(/C=C/C(C)(C)O)c12` [Synthesis Example 265, (E)-N-Cyclopropyl-7-hydroxy-3-(3-hydroxy-3-methylbut-1-en-1-yl)-4-isobutyl-5-oxo-4,5-dihydropyrazolo[1,5-a]pyrimidine-6-carboxamide], the IC50 falls from 2.69 nM to 0.68 nM (4-fold).

First: CC(C)Cn1c(=O)c(C(=O)NC2CC2)c(O)n2ncc(CCc3cccnc3)c12 [Synthesis Example 250, N-Cyclopropyl-7-hydroxy-4-isobutyl-5-oxo-3-(2-(pyridin-3-yl)ethyl)-4,5-dihydropyrazolo[1,5-a]pyrimidine-6-carboxamide]
Second: CC(C)Cn1c(=O)c(C(=O)NC2CC2)c(O)n2ncc(COc3cccnc3)c12 [Synthesis Example 259, N-Cyclopropyl-7-hydroxy-4-isobutyl-5-oxo-3-((pyridin-3-yloxy)methyl)-4,5-dihydropyrazolo[1,5-a]pyrimidine-6-carboxamide]
The IC50 of the first is 4.9-fold higher: 0.88 nM for the first, 0.18 nM for the second. The second is the more potent here.

`CC(C)Cn1c(=O)c(C(=O)NC2CC2)c(O)n2ncc(CCc3ccc(C(F)(F)F)nc3)c12` [Synthesis Example 251, N-Cyclopropyl-7-hydroxy-4-isobutyl-5-oxo-3-(2-(6-(trifluoromethyl)pyridin-3-yl)ethyl)-4,5-dihydropyrazolo[1,5-a]pyrimidine-6-carboxamide] and `CC(C)Cn1c(=O)c(C(=O)NC2CC2)c(O)n2ncc(COc3ccccc3)c12` [Synthesis Example 260, N-Cyclopropyl-7-hydroxy-4-isobutyl-5-oxo-3-(phenoxymethyl)-4,5-dihydropyrazolo[1,5-a]pyrimidine-6-carboxamide] are within 1.5-fold of each other in IC50: 1.74 nM for the first, 1.27 nM for the second.

Going from `C/C(=C\c1cnn2c(O)c(C(=O)NC3CC3)c(=O)n(CC(C)C)c12)C(=O)O` [Synthesis Example 252, (E)-3-(6-(Cyclopropylcarbamoyl)-7-hydroxy-4-isobutyl-5-oxo-4,5-dihydropyrazolo[1,5-a]pyrimidin-3-yl)-2-methylacrylic acid] to `C/C(=C\c1cnn2c(O)c(C(=O)NC3CC3)c(=O)n(CC(C)C)c12)C(=O)NC(C)C` [Synthesis Example 257, (E)-N-Cyclopropyl-7-hydroxy-4-isobutyl-3-(3-(isopropylamino)-2-methyl-3-oxoprop-1-en-1-yl)-5-oxo-4,5-dihydropyrazolo[1,5-a]pyrimidine-6-carboxamide], the IC50 falls from 7.11 nM to 1.01 nM (7-fold). The second is the more potent here.

`C/C(=C\c1cnn2c(O)c(C(=O)NC3CC3)c(=O)n(CC(C)C)c12)C(=O)N1CCOCC1` [Synthesis Example 254, (E)-N-Cyclopropyl-7-hydroxy-4-isobutyl-3-(2-methyl-3-morpholino-3-oxoprop-1-en-1-yl)-5-oxo-4,5-dihydropyrazolo[1,5-a]pyrimidine-6-carboxamide] and `C/C(=C\c1cnn2c(O)c(C(=O)NC3CC3)c(=O)n(CC(C)C)c12)C(=O)N1CCC(F)(F)C1` [Synthesis Example 256, (E)-N-Cyclopropyl-3-(3-(3,3-difluoropyrrolidin-1-yl)-2-methyl-3-oxoprop-1-en-1-yl)-7-hydroxy-4-isobutyl-5-oxo-4,5-dihydropyrazolo[1,5-a]pyrimidine-6-carboxamide] are within 1.5-fold of each other in IC50: 0.84 nM for the first, 0.97 nM for the second.

`C/C(=C\c1cnn2c(O)c(C(=O)NC3CC3)c(=O)n(CC(C)C)c12)C(=O)N1CCN(C2CC(F)(F)C2)CC1` [Synthesis Example 255, (E)-N-Cyclopropyl-3-(3-(4-(3,3-difluorocyclobutyl)piperazin-1-yl)-2-methyl-3-oxoprop-1-en-1-yl)-7-hydroxy-4-isobutyl-5-oxo-4,5-dihydropyrazolo[1,5-a]pyrimidine-6-carboxamide] and `C/C(=C\c1cnn2c(O)c(C(=O)NC3CC3)c(=O)n(CC(C)C)c12)C(=O)N(C)CC#N` [Synthesis Example 258, (E)-3-(3-((Cyanomethyl)(methyl)amino)-2-methyl-3-oxoprop-1-en-1-yl)-N-cyclopropyl-7-hydroxy-4-isobutyl-5-oxo-4,5-dihydropyrazolo[1,5-a]pyrimidine-6-carboxamide] are within 1.5-fold of each other in IC50: 1.02 nM for the first, 0.74 nM for the second.

`CC(C)Cn1c(=O)c(C(=O)NC2CC2)c(O)n2ncc(C#N)c12` [Synthesis Example 261, 3-Cyano-N-cyclopropyl-7-hydroxy-4-isobutyl-5-oxo-4,5-dihydropyrazolo[1,5-a]pyrimidine-6-carboxamide] and `CC(C)Cn1c(=O)c(C(=O)NC2CC2)c(O)n2ncc(/C=C/C3=NCC(C)(C)O3)c12` [Synthesis Example 266, (E)-N-Cyclopropyl-3-(2-(5,5-dimethyl-4,5-dihydrooxazol-2-yl)vinyl)-7-hydroxy-4-isobutyl-5-oxo-4,5-dihydropyrazolo[1,5-a]pyrimidine-6-carboxamide] are within 1.5-fold of each other in IC50: 2.27 nM for the first, 1.58 nM for the second.

`CC(C)Cn1c(=O)c(C(=O)NC2CC2)c(O)n2ncc(CNC(=O)C3CCOCC3)c12` [Synthesis Example 262, N-Cyclopropyl-7-hydroxy-4-isobutyl-5-oxo-3-((tetrahydro-2H-pyran-4-carboxamido)methyl)-4,5-dihydropyrazolo[1,5-a]pyrimidine-6-carboxamide] and `CC(C)Cn1c(=O)c(C(=O)NC2CC2)c(O)n2ncc(CNC(=O)C3CCC(F)(F)CC3)c12` [Synthesis Example 263, N-Cyclopropyl-3-((4,4-difluorocyclohexane-1-carboxamido)methyl)-7-hydroxy-4-isobutyl-5-oxo-4,5-dihydropyrazolo[1,5-a]pyrimidine-6-carboxamide] are within 1.5-fold of each other in IC50: 1.01 nM for the first, 1.22 nM for the second.

Going from `CC(C)Cn1c(=O)c(C(=O)NC2CC2)c(O)n2ncc(CC(=O)N3CCOCC3)c12` [Synthesis Example 264, N-Cyclopropyl-7-hydroxy-4-isobutyl-3-(2-morpholino-2-oxoethyl)-5-oxo-4,5-dihydropyrazolo[1,5-a]pyrimidine-6-carboxamide] to `CC(C)Cn1c(=O)c(C(=O)NC2CC2)c(O)n2ncc(/C=C/c3noc(=O)[nH]3)c12` [Synthesis Example 267, (E)-N-Cyclopropyl-7-hydroxy-4-isobutyl-5-oxo-3-(2-(5-oxo-4,5-dihydro-1,2,4-oxadiazol-3-yl)vinyl)-4,5-dihydropyrazolo[1,5-a]pyrimidine-6-carboxamide], the IC50 rises from 0.95 nM to 14.3 nM (15-fold). The first is the more potent here.

`Cc1nnc(/C=C/c2cnn3c(O)c(C(=O)NC4CC4)c(=O)n(CC(C)C)c23)s1` [Synthesis Example 268, (E)-N-Cyclopropyl-7-hydroxy-4-isobutyl-3-(2-(5-methyl-1,3,4-thiadiazol-2-yl)vinyl)-5-oxo-4,5-dihydropyrazolo[1,5-a]pyrimidine-6-carboxamide] and `Cc1nnc(/C=C/c2cnn3c(O)c(C(=O)NC4CC4)c(=O)n(CC(C)C)c23)o1` [Synthesis Example 269, (E)-N-Cyclopropyl-7-hydroxy-4-isobutyl-3-(2-(5-methyl-1,3,4-oxadiazol-2-yl)vinyl)-5-oxo-4,5-dihydropyrazolo[1,5-a]pyrimidine-6-carboxamide] are within 1.5-fold of each other in IC50: 1.04 nM for the first, 1.17 nM for the second.

`COC(C)(C)Cn1c(=O)c(C(=O)NC2CC2)c(O)n2nc(Br)cc12` [Synthesis Example 270, 2-Bromo-N-cyclopropyl-7-hydroxy-4-(2-methoxy-2-methylpropyl)-5-oxo-4,5-dihydropyrazolo[1,5-a]pyrimidine-6-carboxamide] and `COC(C)(C)Cn1c(=O)c(C(=O)NC2CC2)c(O)n2nc(-c3cccnc3N)cc12` [Synthesis Example 271, 2-(2-Aminopyridin-3-yl)-N-cyclopropyl-7-hydroxy-4-(2-methoxy-2-methylpropyl)-5-oxo-4,5-dihydropyrazolo[1,5-a]pyrimidine-6-carboxamide] are within 1.5-fold of each other in IC50: 1.16 nM for the first, 1.08 nM for the second.
